The text below walks through data of ChEMBL document CHEMBL3507680, “University of Dundee, Gates Library screen for HepG2 cell viability”.

The nature of this series: Human HepG2 cell viability assay in 384 well format. Type of series: toxicity, cell-based. Also noted: dose 125 nL, time 70.5 hour; concentration not given beside the values. To be noted: HepG2 cells, read-out: Inhibition.

With `COc1ncccc1C(=O)NC1(c2cccc(F)c2)CCOCC1`, the cytotoxicity at 70.5 h turned out to be 22.6%.

With `CN(C)c1cc(C(=O)NC2(c3cccc(F)c3)CCOCC2)ccn1`, the cytotoxicity at 70.5 h is -1.02%. The value for `Cc1cc(CNC(=O)NCc2ccccc2N2CCOCC2)no1` was 1.76%; that for `CC(C)(C)OC(=O)N1CCCc2ccc(NCc3cc[nH]c3)cc21` was -9.07%.

Take `CC(C)C1CN(C(=O)c2ccccc2)CCS1` (stereo not drawn): the cytotoxicity at 70.5 h turned out to be 2.34%.

Turning to `CC(C)C1CN(C(=O)c2ccncc2)CCS1` (stereo not drawn), the cytotoxicity at 70.5 h is -1.14%.

Take `CC(CNS(=O)(=O)c1cccc(Cl)c1)N1CCN(C)CC1` (stereo not drawn): the cytotoxicity at 70.5 h is -5.03%. The value for `Cc1ccc(S(=O)(=O)NCCCN2CCC(O)CC2)c(F)c1` was 18.4%; that for `CN(Cc1ccc(F)cc1)C(=O)CN1CCCCC1Cn1cncn1` (stereo not drawn) was -3.07%; that for `CC(C)c1cccc(S(=O)(=O)NCCCN2CCC(O)CC2)c1` was 3.11%. The value for `CN1CC(C(=O)N2CCC(Oc3ccccc3Cl)CC2)CC1=O` (stereo not drawn) was -1.46%. For the compound `Cc1cn2c(n1)CCC(NC(=O)CCOc1ccccc1F)C2` (stereo not drawn), the cytotoxicity at 70.5 h was -5.57%. With `Cc1cc(C)n(C2CN(CC(=O)N(C)Cc3cnn(C)c3)C2)n1`, the cytotoxicity at 70.5 h is -7%. `O=C(c1ccoc1)N1CCN(Cc2ccccc2F)CC1`: the cytotoxicity at 70.5 h was -3.32%. The value for `Cc1ccc(CNC(=O)NC(C)CN2CCOCC2)s1` (stereo not drawn) was -6.15%; that for `COC(=O)N1CCN(Cc2csc(-c3ncccn3)n2)CC1` was -5.37%; that for `O=C(COc1cccc2c1CCC2=O)NCC(F)(F)F` was -2.4%. Then `N#CCc1ccc(NC(=O)CNc2ccc(Br)cc2F)cc1`, with -7.86%; and `Cc1ccc(C)c(NC(=O)c2cc(S(=O)(=O)N3CCSCC3)c[nH]2)c1`, with 7.14%. On to `Cc1nnc(NC(=O)c2cc(S(=O)(=O)N3CCSCC3)c[nH]2)s1`, for which the cytotoxicity at 70.5 h was -0.0324%. Consider `CC(CN1CCOCC1)NC(=O)NCc1cccs1` (stereo not drawn), for which the cytotoxicity at 70.5 h is -7.69%. Take `CCc1nnc2n1CCN(C(=O)C(OC)c1ccccc1)C2` (stereo not drawn): the cytotoxicity at 70.5 h was -8.62%.

With `c1cnc(N2CCC(NCc3cnc(C4CCC4)s3)CC2)nc1`, the cytotoxicity at 70.5 h is -11.5%. Then `c1ccc(CN2CCC(NCCc3ccc4c(c3)CCO4)CC2)nc1`, with 0.552%; and `COCCOc1cc(C(=O)N2CC(C)c3ccccc32)ccn1` (stereo not drawn), with -11.1%. As for `COc1cccc(NC(C(N)=O)c2ccc(Br)cc2)c1` (stereo not drawn), the cytotoxicity at 70.5 h was -10.7%. Then `NC(=O)CN1CCC(NC(=O)N2CCCC2c2ccsc2)CC1` (stereo not drawn), with -6.14%. On to `CN(C(=O)CN1CCCc2cc(F)cc(F)c21)c1ccccc1`, for which the cytotoxicity at 70.5 h is -16.8%. Consider `CC(C)N(Cc1ccccc1)Cc1csc(-c2ncccn2)n1`, for which the cytotoxicity at 70.5 h is -10.1%. Then `Cc1nnc2n1CCN(C(=O)CN1C(=O)CCOc3ccccc31)C2`, with -7.17%; and `Cc1noc(C)c1CN(C)C(=O)c1ccc2c(c1O)OC(C)(C)C2`, with 1.38%. Then `N#Cc1ccc(NCc2cccc(COC3CCOCC3)c2)nc1`, with -2.1%; and `CC(C)Cc1nc(COc2ccc(N(C)C(N)=O)cc2)no1`, with -2.35%. Then `Cn1cccc1C(=O)NS(=O)(=O)c1cnn(-c2ccccc2F)c1`, with 11.6%; and `COC(C)c1cccc(NC(=O)N(CCC#N)Cc2ccccn2)c1` (stereo not drawn), with -6.49%. For `CCc1cnc(CN2C(=O)CC3(CCSC3)C2=O)o1` (stereo not drawn), the cytotoxicity at 70.5 h was 11.4%. Then `CC(C)c1nc(S(=O)(=O)N2CCSc3ccccc32)c[nH]1`, with -3.59%; and `O=C(C1CCCOC1)N1CCCCc2ccccc21` (stereo not drawn), with -12.1%. Then `CCN1CCN(C(=O)c2c[nH]c(C(C)C)n2)c2ccccc21`, with 2.09%; and `CC(C)c1nnc(CN(C)C(c2ccccc2)c2ccc(F)cc2)o1` (stereo not drawn), with -2.6%. As for `O=C(C1CCCOC1)N1CCCc2ccccc21` (stereo not drawn), the cytotoxicity at 70.5 h is -4.78%. The value for `CC(C)c1nnc(CN(C)C(c2ccc(F)cc2)c2cccnc2)o1` (stereo not drawn) was -2.85%. For `CCN1CCN(S(=O)(=O)c2cn(C(C)C)cn2)c2ccccc21`, the cytotoxicity at 70.5 h is -1.25%. As to `Cc1cc(CNc2ccc3nc(C)sc3c2)no1`, the cytotoxicity at 70.5 h is -4.46%. Take `COCCN(Cc1ccccc1)Cc1csc(-c2ncccn2)n1`: the cytotoxicity at 70.5 h was -4.86%.

With `CC(C)N(CC(N)=O)Cc1csc(-c2ncccn2)n1`, the cytotoxicity at 70.5 h is -2.81%. `CN(C)C(=O)c1csc(-c2ccoc2)n1`: the cytotoxicity at 70.5 h is 27.9%. Turning to `OCC1(CNC2CCc3cc4c(cc32)OCCO4)CC1` (stereo not drawn), the cytotoxicity at 70.5 h came to 22.1%. The value for `Cc1sc2nc(SC(C)c3nc(C(C)(C)C)no3)nc(N)c2c1C` (stereo not drawn) was 21.9%; that for `CCN(C(=O)CN1CCCC1c1cccs1)c1ccccc1C` (stereo not drawn) was 30.3%; that for `CN(Cc1nccn1C)C(=O)C1COCC(=O)N1Cc1ccccc1` (stereo not drawn) was 30.1%. In the case of `CC(C)Cn1ncc2cc(C(=O)N(C)Cc3cccc(O)c3)cnc21`, the cytotoxicity at 70.5 h is 11.7%. Then `CC(C)N(C(=O)c1csc(-c2ccoc2)n1)C1CCOCC1`, with -10.2%; and `Cc1n[nH]c(C2CN(Cc3ncc(C(C)C)o3)CCO2)n1` (stereo not drawn), with 0.362%; and `CC(C)c1cccc(-n2cc(O)c(C(=O)NCCC(=O)N(C)C)n2)c1`, with -6.63%. Then `O=C1CCCc2[nH]c(=O)c(C(=O)N(CC3CCCCC3)C3CC3)cc21`, with -7.98%; and `CN(CC1CCC1)C(=O)c1ccc(-c2nc(C3CC3)n[nH]2)cc1`, with -8.67%; and `CN(CC(O)C1CC1)C(=O)c1ccc(-c2nc(C3CC3)n[nH]2)cc1` (stereo not drawn), with -7.71%. Then `CS(=O)(=O)c1cccc(S(=O)(=O)NCCCN2CCNC(=O)C2)c1`, with -5.37%. `CC(=O)N(CCc1nc(-c2cc(C(N)=O)co2)cs1)C(C)C`: the cytotoxicity at 70.5 h was found to be 2.32%.

With `CC(C)c1nccn1CCC(=O)N1CCCC1c1cccn1C` (stereo not drawn), the cytotoxicity at 70.5 h was -3.96%. For `Cc1c(C(=O)N2CCC(C(O)c3ccc(Cl)cc3)CC2)cnn1C` (stereo not drawn), the cytotoxicity at 70.5 h was -3.74%. In the case of `O=S(=O)(N1CCCCC1)N1CCOC2(CCCC2)C1`, the cytotoxicity at 70.5 h is -0.763%. For the compound `COCc1nc(CNc2cccc(-c3csc(C)n3)c2)cs1`, the cytotoxicity at 70.5 h was -0.82%. The value for `COc1cccc(S(=O)(=O)CCNC(C)Cn2cccn2)c1` (stereo not drawn) was 4.6%; that for `CC(=O)N(CCc1nc(-c2cc(C(N)=O)oc2C)cs1)C(C)C` was -8.28%; that for `CCN(C(=O)CN1CCCC1c1cc(C)no1)c1ccccc1C` (stereo not drawn) was -6.07%.

As to `OCCNC1CCc2cc3c(cc21)OCCO3` (stereo not drawn), the cytotoxicity at 70.5 h is 9.99%.

In the case of `CN(c1nc(CSc2nnc(Cn3cncn3)o2)cs1)C1CC1`, the cytotoxicity at 70.5 h is 0.758%.

With `CC(NC(=O)Nc1nccs1)C(=O)NC1CCCC1` (stereo not drawn), the cytotoxicity at 70.5 h was determined as 0.896%. The value for `CC(NC(=O)Nc1nncs1)C(=O)NC1CCCC1` (stereo not drawn) was -8.75%; that for `CC(=O)NCCC(=O)NCc1ccc(Br)cc1Cl` was -0.899%; that for `Cc1cc(NC(=O)CN(c2ccccc2)C(C)C)on1` was 0.413%.
